Key:
[1] = target: T1, BCDIN3D (Homo sapiens, UniProt Q7Z5W3); test: BCDIN3D IC50 RFMS (RapidFire) assay with mini-helix; type: biochemical; conditions: 25 nM enzyme
T1 sequence (Q7Z5W3 1-292): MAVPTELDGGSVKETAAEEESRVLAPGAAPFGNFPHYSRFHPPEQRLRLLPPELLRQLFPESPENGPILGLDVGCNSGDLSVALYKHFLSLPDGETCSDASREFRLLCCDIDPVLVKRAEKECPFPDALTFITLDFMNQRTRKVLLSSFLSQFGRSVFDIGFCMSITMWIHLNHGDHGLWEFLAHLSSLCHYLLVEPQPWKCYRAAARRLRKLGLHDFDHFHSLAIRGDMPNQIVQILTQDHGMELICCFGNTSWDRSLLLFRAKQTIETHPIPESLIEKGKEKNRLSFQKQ
Procedure, shortened: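 SAH formation was measured by RapidFire mass spectrometry with D4- and 13C10-SAH internal standards after TCA quench. Substrates 6 μM SAM and 0.2 μM mini-helix reacted 1 h at 37 °C with 25 nM enzyme, which had been preincubated 10 min with compound (1% DMSO) in Tris pH 8.0 buffer with DTT, EDTA, BSA.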

[2] = target: T1, BCDIN3D; test: BCDIN3D InCellPulse thermal stability assay in transfected A549 cells; type: cell-based; conditions: heat shock 58° C. 15 min
Procedure, shortened: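 Thermal stabilisation read-out: after a 15 min 58 °C heat shock, ePL-tagged BCDIN3D in transiently transfected A549 cells (1500/well) was quantified by enzyme-fragment complementation luminescence. Compounds were pre-incubated with cells 1 h at 37 °C, 0.6% DMSO final.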

[3] = mini-helix substrate 0.2 μM, SAM 6 μM
[4] = transiently transfected A549 cells
[5] = mini-helix 0.2 μM and SAM 6 μM as substrates, 1 hr at 37° C.
[6] = A549 cells transiently transfected with ePL-BCDIN3D, 1 h pre-incubation

Compound	IC50 [1, 3] [nM]	IC50 [2, 4] [nM]	IC50 [1, 5] [nM]	IC50 [2, 6] [nM]
Cn1ncc2c(Nc3ccc(C(F)(F)F)cc3)nc(NCC3COCCN3)nc21 (stereo not drawn) [Compound 3.16, 1-methyl-N6-[(morpholin-3-yl)methyl]-N4-[4-(trifluoromethyl)phenyl]-1H-pyrazolo[3,4-d]pyrimidine-4,6-diamine]	9920	60000		
Cn1ncc2c(N[C@H]3CCC(F)(F)C3)nc(NC[C@H](N)c3ccccc3)nc21 [Compound 4.126, N6-[(2R)-2-amino-2-phenylethyl]-N4-[(1S)-3,3-difluorocyclopentyl]-1-methyl-1H-pyrazolo[3,4-d]pyrimidine-4,6-diamine]	450	580		
C[C@H](Nc1nc(NC[C@H](N)c2ccccc2)nc2c1cnn2C)C(F)(F)F [Compound 4.98, N6-[(2R)-2-amino-2-phenyl-ethyl]-1-methyl-N4-[(1S)-2,2,2-trifluoro-1-methyl-ethyl]pyrazolo[3,4-d]pyrimidine-4,6-diamine]	136	232		
COc1ccc(Nc2nc(NCCN)nc3c2cnn3C)cc1Cl [Compound 1.21, N6-(2-aminoethyl)-N4-(3-chloro-4-methoxyphenyl)-1-methyl-1H-pyrazolo[3,4-d]pyrimidine-4,6-diamine]			1150	8070
Cn1ncc2c(NC3CC4(COC4)C3)nc(NC[C@H](N)c3ccccc3)nc21 [Compound 4.95, N6-[(2R)-2-amino-2-phenyl-ethyl]-1-methyl-N4-(2-oxaspiro[3.3]heptan-6-yl)pyrazolo[3,4-d]pyrimidine-4,6-diamine]	374	456		
Cc1nn(C)c2nc(NCC(N)c3ccccc3)nc(Nc3ccc(C(F)(F)F)cc3)c12 (stereo not drawn) [Compound 4.18, 6-N-(2-amino-2-phenylethyl)-1,3-dimethyl-4-N-[4-(trifluoromethyl)phenyl]pyrazolo[3,4-d]pyrimidine-4,6-diamine]	288	270		
Cn1ncc2c(Nc3cccc(Cl)c3)nc(NCC3(N)CC3)nc21 [Compound 2.35, 6-N-[(1-aminocyclopropyl)methyl]-4-N-(3-chlorophenyl)-1-methylpyrazolo[3,4-d]pyrimidine-4,6-diamine]	260	1980		
CCC(C)(C)Nc1nc(NC[C@H](N)c2ccccc2)nc2c1cnn2C [Compound 4.101, N6-[(2R)-2-amino-2-phenyl-ethyl]-N4-(1,1-dimethylpropyl)-1-methyl-pyrazolo[3,4-d]pyrimidine-4,6-diamine]	463	330		
Cn1ncc2c(Nc3ccc(C(F)(F)F)nc3)nc(NC[C@](C)(N)c3ccccc3)nc21 (single isomer, unassigned) [Compound 7.13]			2620	6000
Cn1ncc2c(Nc3ccc(C(F)(F)F)cc3)nc(NCC(N)CF)nc21 (stereo not drawn) [Compound 3.26, 6-N-(2-amino-3-fluoropropyl)-1-methyl-4-N-[4-(trifluoromethyl)phenyl]pyrazolo[3,4-d]pyrimidine-4,6-diamine]	3000	4030		
Cn1ncc2c(Nc3ccc(F)cc3)nc(NC[C@H](N)c3ccccc3)nc21 [Compound 7.05, N6-[(2R)-2-amino-2-phenyl-ethyl]-N4-(4-fluorophenyl)-1-methyl-pyrazolo[3,4-d]pyrimidine-4,6-diamine]			241	169
CC(C)[C@@H](C)Nc1nc(NC[C@H](N)c2ccccc2)nc2c1cnn2C [Compound 4.122, N6-[(2R)-2-amino-2-phenylethyl]-1-methyl-N4-[(2R)-3-methylbutan-2-yl]-1H-pyrazolo[3,4-d]pyrimidine-4,6-diamine]	120	220		
[2H]C([2H])([2H])n1ncc2c(NC)nc(NCC(N)c3ccccc3)nc21 (stereo not drawn) [Compound 4.38, 6-N-(2-amino-2-phenylethyl)-4-N-methyl-1-(trideuteriomethyl)pyrazolo[3,4-d]pyrimidine-4,6-diamine]	8100	9560		
Cn1ncc2c(NCCC(F)(F)F)nc(NC[C@H](N)c3ccccc3)nc21 [Compound 4.114, N6-[(2R)-2-amino-2-phenyl-ethyl]-1-methyl-N4-(3,3,3-trifluoropropyl)pyrazolo[3,4-d]pyrimidine-4,6-diamine]	540	1560		
Cn1ncc2c(NC3CC3(C)C)nc(NC[C@H](N)c3ccccc3)nc21 (stereo partly drawn) [Compound 4.120, N6-[(2R)-2-amino-2-phenyl-ethyl]-N4-(2,2-dimethylcyclopropyl)-1-methyl-pyrazolo[3,4-d]pyrimidine-4,6-diamine]	252	1450		
C[C@@H](Nc1nc(NC[C@H](N)c2ccccc2)nc2c1cnn2C)C1CC1 [Compound 4.129, N6-[(2R)-2-amino-2-phenylethyl]-N4-[(1R)-1-cyclopropylethyl]-1-methyl-1H-pyrazolo[3,4-d]pyrimidine-4,6-diamine]	180	290		
Cn1ncc2c(NCC(F)(F)F)nc(NC[C@H](N)c3ccccc3)nc21 [Compound 4.45, N6-[(2R)-2-amino-2-phenyl-ethyl]-1-methyl-N4-(2,2,2-trifluoroethyl)pyrazolo[3,4-d]pyrimidine-4,6-diamine]	316	414		
CC[C@@H](N)CNc1nc(NCc2ccc(C)c(Cl)c2)c2cnn(C)c2n1 [Compound 3.07, 6-N-[(2R)-2-aminobutyl]-4-N-[(3-chloro-4-methylphenyl)methyl]-1-methylpyrazolo[3,4-d]pyrimidine-4,6-diamine]	299	664		
Cn1ncc2c(NCC(F)(F)F)nc(NC[C@@H](N)c3ccccc3)nc21 [Compound 7.07, N6-[(2S)-2-amino-2-phenyl-ethyl]-1-methyl-N4-(2,2,2-trifluoroethyl)pyrazolo[3,4-d]pyrimidine-4,6-diamine]			5620	4120
Cn1ncc2c(Nc3ccc(F)cc3)nc(NCC(N)c3ccccc3)nc21 (stereo not drawn) [Compound 4.10, 6-N-(2-amino-2-phenylethyl)-4-N-(4-fluorophenyl)-1-methylpyrazolo[3,4-d]pyrimidine-4,6-diamine]	71.7	323		
Cn1ncc2c(NCc3cccc(Br)c3)nc(NCC3(N)CC3)nc21 [Compound 2.12, 6-N-[(1-aminocyclopropyl)methyl]-4-N-[(3-bromophenyl)methyl]-1-methylpyrazolo[3,4-d]pyrimidine-4,6-diamine]	588	1490		
Cn1ncc2c(NCc3cccc(Br)c3)nc(NCC(N)c3ccccc3)nc21 (stereo not drawn) [Compound 4.06, 6-N-(2-amino-2-phenylethyl)-4-N-[(3-bromophenyl)methyl]-1-methylpyrazolo[3,4-d]pyrimidine-4,6-diamine]	87.2	139		
Cn1ncc2c(NC3CCOCC3)nc(NC[C@H](N)c3ccccc3)nc21 [Compound 4.69, N6-[(2R)-2-amino-2-phenyl-ethyl]-1-methyl-N4-tetrahydropyran-4-yl-pyrazolo[3,4-d]pyrimidine-4,6-diamine]	851	3140		
Cc1ccc(CNc2nc(NCC(C)N)nc3c2cnn3C)cc1Cl (stereo not drawn) [Compound 3.01, 6-N-(2-aminopropyl)-4-N-[(3-chloro-4-methylphenyl)methyl]-1-methylpyrazolo[3,4-d]pyrimidine-4,6-diamine]	3320	2280		

Source: patent US20220370453A1 (Storm Therapeutics Ltd, priority 2019, published 2022)
